Data from patent US7256207B2, “Inhibitors of cathepsin S” (IRM LLC, priority 2003, dated 2007).
pKi: −log10 of the molar value.

Experiments:
Format in all cases: biochemical
Cathepsin S = Cathepsin S (Homo sapiens, UniProt P25774); test: Cathepsin S inhibition assay, fluorogenic peptide substrate; settings: Cathepsin S inhibition constant; pH5.5, 20 minutes preincubation at room temperature; read-out: Ki Cat. S
Method: (§1) The optimal substrate for cathepsin S, acetyl-histidine-proline-valine-lysine-amino carbamoyl coumarin, was identified from screening a combinatorial library of fluorogenic peptide substrates (Harris, J. L., B. J. Backes, et al. Proc Natl Acad Sci U S A 2000, 97(14), 7754-9). Kinetic measurements are performed in a total reaction volume of 30 μl in 384-well microtiter plates. Cathepsin S, at a final concentration of 0.3-3 nM (active site), is incubated with the compounds at twelve varying concentrations in a buffer containing 100 mM NaAc (pH5.5), 1 mM EDTA, 100 mM NaCl, 0.01% Brij-35 for 20 minutes at room temperature. Control reactions in the absence of inhibitor are performed in replicates of 24. The reactions are initiated by adding the substrate, acetyl-histidine-proline-valine-lysine-amino carbamoyl coumarin, to a final concentration of 50 μM. The rate of substrate hydrolysis is measured by monitoring the increase in fluorescence at an excitation wavelength of 380 nm and an emission wavelength of 450 nm that results from cleavage of the aniline bond in the substrate by the enzyme. The apparent inhibition constants for the compounds are determined from the enzyme progress curves (Kuzmic, P., K. C. Elrod, et al. Anal Biochem 2000, 286(1), 45-50) and are then used to calculate the inhibition constants for competitive inhibitors.

Cathepsin L = Cathepsin L (Homo sapiens, UniProt P07711); test: Cathepsin L inhibition assay, fluorogenic peptide substrate (selectivity for Cat. S over Cat. L); settings: ratio of cathepsin L inhibition constant to cathepsin S inhibition constant
Chain of Cathepsin L (P07711 114-333, species assumed): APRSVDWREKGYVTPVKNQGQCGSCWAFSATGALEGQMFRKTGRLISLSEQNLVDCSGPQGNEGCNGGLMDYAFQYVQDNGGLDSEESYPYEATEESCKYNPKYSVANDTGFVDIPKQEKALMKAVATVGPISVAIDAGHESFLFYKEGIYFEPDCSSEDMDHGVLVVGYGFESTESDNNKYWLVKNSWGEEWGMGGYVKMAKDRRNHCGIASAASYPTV
Method: as §1, with “cathepsin L, acetyl-histidine-lysine-phenylalanine-lysine-amino” for “cathepsin S, acetyl-histidine-proline-valine-lysine-amino”, “Cathepsin L,” for “Cathepsin S,”, “of 0.1” for “of 0.3-3”, “substrate, acetyl-histidine-lysine-phenylalanine-lysine-amino” for “substrate, acetyl-histidine-proline-valine-lysine-amino”, “of 20” for “of 50”
(§2) Selectivity for cathepsin S in the presence of cathepsin isozymes was determined by the ratio of the cathepsin isozyme inhibition constant of a compound of the present invention to the cathepsin S inhibition constant of the same compound. Preferred compounds of the present invention selective for cathepsin S have ratios of greater than 10. More preferred compounds of the present invention selective for cathepsin S have ratios of greater than 100. Most preferred compounds of the present invention selective for cathepsin S have ratios of greater than 1000.

Cathepsin K = molecular target: T1, Cathepsin K (Homo sapiens, UniProt P43235); test: Cathepsin K inhibition assay, fluorogenic peptide substrate (selectivity for Cat. S over Cat. K); settings: ratio of cathepsin K inhibition constant to cathepsin S inhibition constant
T1 sequence (P43235 115-329): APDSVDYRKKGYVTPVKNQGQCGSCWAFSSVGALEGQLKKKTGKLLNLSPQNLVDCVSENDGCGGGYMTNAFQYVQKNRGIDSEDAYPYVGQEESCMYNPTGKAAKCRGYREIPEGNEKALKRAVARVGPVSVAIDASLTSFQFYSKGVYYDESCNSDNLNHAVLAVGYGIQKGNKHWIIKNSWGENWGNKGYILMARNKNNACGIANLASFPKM
Method: as §1, with “cathepsin K, acetyl-lysine-histidine-proline-lysine-amino” for “cathepsin S, acetyl-histidine-proline-valine-lysine-amino”, “Cathepsin K,” for “Cathepsin S,”, “of 3.5” for “of 0.3-3”, “substrate, acetyl-lysine-histidine-proline-lysine-amino” for “substrate, acetyl-histidine-proline-valine-lysine-amino”, “of 40” for “of 50”
as §2

Cathepsin B = Cathepsin B (Homo sapiens, UniProt P07858); test: Cathepsin B inhibition assay, fluorogenic peptide substrate (selectivity for Cat. S over Cat. B); settings: ratio of cathepsin B inhibition constant to cathepsin S inhibition constant
Method: as §1, with “B,” for “S,”, “1.5” for “0.3-3”, “[…].” for “50 μM.”
as §2

Chain of Cathepsin S (P25774 115-331, species assumed): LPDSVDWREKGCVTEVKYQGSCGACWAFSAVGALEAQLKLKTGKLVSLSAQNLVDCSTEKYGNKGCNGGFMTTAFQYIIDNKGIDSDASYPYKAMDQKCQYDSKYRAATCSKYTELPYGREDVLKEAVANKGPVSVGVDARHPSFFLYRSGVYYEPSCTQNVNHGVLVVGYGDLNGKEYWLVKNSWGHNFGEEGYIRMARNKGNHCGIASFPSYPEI

pKi (Cathepsin S): > 6.00
Selectivity for Cat. S over Cat. L (Cathepsin L): ++ (++, >100)
Selectivity for Cat. S over Cat. K (Cathepsin K): + (+, >10)
Selectivity for Cat. S over Cat. B (Cathepsin B): ++ (++, >100)
SMILES: C[C@@H](CNc1ccc(OC(F)F)cc1)NC(=O)O[C@@H](CC1CCCC1)Cn1ccc(C(F)(F)F)n1 [Example 7, 1-(S)-Cyclopentylmethyl-2-(3-trifluoromethyl-pyrazol-1-yl)-ethyl [2-(4-difluoromethoxy-phenylamino)-1-(S)-methyl-ethyl]carbamate]
